# Measured values: US4322346A, “5H-2,3-Benzodiazepine derivatives” (priority 1978, dated 1982)
# Columns and labels:
# Type in all cases: in vivo
# [1] = tested on: mice; test: General behaviour of mice; conditions: 100 mg/kg i.p. and, resp., 200 mg/kg p.o., SMA = spontaneous motor activity
# Description: These compounds decrease the spontaneous motor activity and potentiate the effect of narcotics.
# (§1) The tests were performed on mice. In the examination of the general behaviour the animals were treated intraperitoneally with 100 mg/kg or orally with 200 mg/kg of the compound in question. The fighting behaviour test was performed according to the method of Tedeschi et al. (J. Pharm. Exp. Ther. 25, 28 /1959/). The observations concerning the general behaviour of the animals and the ED50 values obtained in the fighting behaviour test are summarized in Table 1. In these tests 1-(3,4-dimethoxyphenyl)-4-methyl-5-ethyl-7,8-dimethoxy-5H-2,3-benzodiazepine (Grandaxin) was applied as reference substance.
# [2] = tested on: mice; test: Fighting behaviour test on mice (method of Tedeschi et al.)
# Description: as §1
# [3] = tested on: mice; test: Narcosis potentiating activity on mice (sodium hexobarbital narcosis); conditions: for Narcosis potentiating activity on mice, Relative activity: relative to Grandaxin (1.0)
# Description: When studying the narcosis potentiating effect, the benzodiazepine compounds were administered to mice in oral dosages of 12.5, 25, 50 or 100 mg/kg, and 30 minutes later 50 mg/kg of sodium hexobarbital were injected intravenously into the animals. The percentage prolongation of the narcosis period, compared to the value observed in the control group treated with sodium hexobarbital alone, was calculated. In these tests Grandaxin was applied again as reference substance.
smiles,measurement,setting,value
"CCC1C(C)=NN=C(c2ccc(OC)c(OC)c2)c2cc(OC)c(OC)cc21 (centres unmarked) [Grandaxin, 1-(3,4-dimethoxyphenyl)-4-methyl-5-ethyl-7,8-dimethoxy-5H-2,3-benzodiazepine, reference compound]",General behaviour,[1],Decrease of SMA
same,ED50,"[2]; Mus musculus, po, mice",64 mg/kg
same,"""Fighting behaviour"" test on mice, relative activity","[2]; relative to Grandaxin (1.0), from ED50 p.o.",1.0
same,"Narcosis potentiating activity on mice, Relative activity",[3]; 12.5 mg/kg p.o.,1.0
same,"Narcosis potentiating activity on mice, Relative activity",[3]; 25 mg/kg p.o.,1.0
same,"Narcosis potentiating activity on mice, Relative activity",[3]; 50 mg/kg p.o.,1.0
same,"Narcosis potentiating activity on mice, Relative activity",[3]; 100 mg/kg p.o.,1.0
same,change in vivo at 12.5 mg/kg,"[3]; Mus musculus, po, 12.5 mg/kg p.o., 30 minutes before 50 mg/kg sodium hexobarbital i.v., prolongation vs control, read-out: Narcosis potentiating activity on mice, Increase, %",17%
same,change in vivo at 25 mg/kg,"[3]; Mus musculus, po, 25 mg/kg p.o., 30 minutes before 50 mg/kg sodium hexobarbital i.v., prolongation vs control, read-out: Narcosis potentiating activity on mice, Increase, %",81%
same,change in vivo at 50 mg/kg,"[3]; Mus musculus, po, 50 mg/kg p.o., 30 minutes before 50 mg/kg sodium hexobarbital i.v., prolongation vs control, read-out: Narcosis potentiating activity on mice, Increase, %",114%
same,change in vivo at 100 mg/kg,"[3]; Mus musculus, po, 100 mg/kg p.o., 30 minutes before 50 mg/kg sodium hexobarbital i.v., prolongation vs control, read-out: Narcosis potentiating activity on mice, Increase, %",239%
